Series [1] relates to HMECs. Nature of the series: Time course of protection against LTB4 induced PMN TEM after 1 h pretreatment, HMECs. In kind it is cell-based, human. The note with it: 100 nM, 1 h pretreatment, washed, tested at 0, 24, 48 hours. The method, then: FIG. 6 graphically depicts protection against LTB4 induced PMN TEM with PMA up to 48 h after pretreatment. HMECs were pretreated for 1 h with PMA and washed with HBSS three times to remove PMA prior to replacement of culture medium. Neutrophil migration studies were then performed at 0, 24, or 48 hours. Migration was stimulated by adding 500,000 neutrophils to the top well and 100 nM LTB4 to the lower well at 0, 24, and 48 hours after PMA pretreatment. […] PMA (100 nM, (10^−7M) reduced LTB4 induced migration up to 48 hours after 1 h of endothelial-specific pretreatment (***p<0.001).
Referring now to FIG. 7, FIG. 7 graphically depicts protection from LTB4 induced PMN TEM with Bryostatin-1 up to 48 hours after pretreatment. HMECs were pretreated for 1 h with Bryostatin-1 and washed with HBSS three times to remove Bryostatin-1 prior to replacement of culture medium. Neutrophil migration studies were then performed at 0, 24, or 48 hours. Migration was stimulated by adding 500,000 neutrophils to the top well and 100 nM LTB4 to the lower well at 0, 24, and 48 hours after Bryostatin-1 pretreatment. […] Bryostatin-1 (100 nM) reduced LTB4 induced migration up to 48 hours after 1 hour endothelial pretreatment (***p<0.001).
(§1) At confluency, HUVECs were treated for 1 h at 37° C. with Bryostatin-1 (10 nM, 100 nM) in EGM or EGM alone. Inserts were washed three times with HBSS (to reduce drug effects on the neutrophils) and migration assays were ran at t=0, 24, or 48 h. After time elapsed, HUVECs were placed in a new plate containing either 500 μL 100 nM LTB4 or HBSS alone for control. 500 μL HBSS was then added to the top well and spiked with 500,000 neutrophils. Neutrophils were allowed to migrate for 3 h at 37° C. Migration was stopped by removing the inserts and migration was measured using the MPO assay.
(§2) Neutrophil migration was measured using myeloperoxidase (MPO) analysis. Cell culture inserts were first removed and plates were spun at 1,500 RPM for 5 min. The supernatant was removed, and MPO activity was measured using TMB/peroxide as chromogen. The reaction was stopped with sulfuric acid and absorbance was read at 450 nm using a microplate reader. All experiments were performed n=6. Data was expressed as “% neutrophil migration”, which allowed cumulative statistical analysis to be done and account for unpreventable batch-to-batch variations.

In another series the test system is HMEC monolayers. Nature of the series: LTB4 induced neutrophil adhesion to the endothelial monolayer. Type of series: cell-based, human. The note with it: data not shown. The protocol:
(§3) Confluent HMEC monolayers were plated on 48-well plates for adhesion studies, transwells for migration studies, and pretreated with a variety of pharmacological inhibitors and activators for 1 hour. Monolayers were washed three times with HBSS to remove all drug effects on the endothelium. To initiate migration, 100 nM LTB4 was added to the lower compartment and 500,000 neutrophils were added to the upper compartment and allowed to migrate for 3 h. For adhesion assays, LTB4 was added along with 500,000 neutrophils and allowed to adhere for 1 h (time of max. adhesion as determined in FIG. 1). […] The data are shown as % change in migration and adhesion as assessed by MPO assay. All values are expressed as means±SE. Data were analyzed using a one-way ANOVA with Bonferroni corrections for multiple comparisons. Probability (p) values of <0.05 were considered significant. ***p<0.001 vs. LTB4; **p<0.01 vs. LTB4; **p<0.05 vs. LTB4; n=4 for all experiments.

The subject of series [2] is HMECs. Nature of the series: LTB4 induced neutrophil migration across HMEC monolayers (transwell, MPO assay). In kind it is cell-based, human. Particulars: 100 nM LTB4. The protocol: (§4) At confluency HMECs were treated for 1 h at 37° C. with Bryostatin-1 (10 nM, 100 nM) in MCDB-131 media or MCDB-131 media alone. Inserts were washed three times with Hank's Balanced Salt Solution (HBSS) (to eliminate drug effects on the neutrophils) and placed in a new plate containing either 500 μL 100 nM LTB4, or HBSS alone for control. 500 μL HBSS was then added to the top well and spiked with 500,000 neutrophils. For TNF-α experiments, HMECs were left in 20 ng/ml TNF-α in MCDB-131 for 24 h TNF-α was removed and HMECs washed three times. HMECs were treated for 1 h with Bryostatin-1 in endothelial growth medium (EGM) (10 nM, 100 nM). The drug was removed and cells were washed three times. 500 μL HBSS was added to both upper and lower chambers and spiked with 500,000 neutrophils. Neutrophils were allowed to migrate for 3 h at 37° C. Migration was stopped by removing the inserts and migration was measured using the myeloperoxidase (MPO) assay.
as §2, §3

The test system of a further series is HUVECs. Nature of the series: Time course of protection against LTB4 induced PMN TEM after 1 h pretreatment, HUVECs. Type of series: cell-based, human. Particulars: single 1 h 100 nM pretreatment. The method, then:
as §1, §2

For another series, the system named is HMEC. Nature of the series: Alamar blue endothelial viability assay, HMEC. In kind it is cell-based, human. Particulars: single 1 h 100 nM treatment; time points 1, 24, 48 h. The method, then:
(§5) The Alamar blue assay was used to determine endothelial viability after pharmacological intervention. Alamar blue contains a REDOX indicator that results in a color change upon chemical reduction by cellular metabolic activity. Endothelial cells were treated with Bryostatin-1 (100 nM) for 1 h and washed three times with HBSS. Alamar blue (10%) in media was added for 2.5 h at T=0, 24, or 48 hours after drug treatment and the ratio of absorbances (570-600 nm) was measured to determine metabolic activity.

Series [3] deals with endothelial and epithelial cells. Particulars: several types of endothelial and epithelial cells; cited from earlier work.
Series [4] has as its system HMECs. In kind it is cell-based, human. The protocol:
as §4, §2

In the next series the test system is HUVEC. Nature of the series: Alamar blue endothelial viability assay, HUVEC. Type of series: cell-based, human. The protocol:
as §5

Series [5] relates to PKC-ε siRNA nucleofected HUVEC. Nature of the series: LTB4 induced neutrophil migration across PKC-ε siRNA nucleofected HUVEC. In kind it is cell-based, human. The note with it: 1 hour pretreatment. The protocol: HUVECs were pretreated with Go-6983 (1, 10, 100 nM), or Go-6976 (1, 10, 100 nM) for 30 minutes, then spiked with 100 nM Bryostatin-1 for 1 hour. HUVECs previously nucleofected with PKC-δ, -ε, or control siRNA were just treated in Bryostatin-1 for 1 hour. HUVECs were washed three times and placed in a new plate containing either 500 μL 100 nM LTB4, or HBSS alone for control. Neutrophils were allowed to migrate for 3 h at 37° C. Migration was stopped by removing the inserts and migration was measured using the MPO assay.
as §2
Optimum nucleofection parameters were determined using nucleofection of a control vector pmaxGFP. Using fluorescence microscopy and flow cytometry, 2 μg vector/500,000 cells nucleofected yielded the highest nucleofection (data not shown). HUVECs were grown to 70% confluency, trypsinized, and then counted. […]

The next series deals with endothelial cells. The note with it: greater effect seen with PKC-α inhibition; cited from earlier work.

Entries after “also recorded” stand apart in the source; their conditions may differ.

We go through two molecules from US10723744B2, “Transplantation therapies” (Aphios Corporation, priority 2007, dated 2020).

Turning to `CCCCCCCCCCCCCC(=O)O[C@@H]1[C@@H](C)[C@@]2(O)[C@@H](C=C(CO)C[C@]3(O)C(=O)C(C)=C[C@@H]23)[C@@H]2C(C)(C)[C@]12OC(C)=O` [PMA, phorbol myristate acetate], the “time after pretreatment up to which LTB4 induced migration is reduced” value in the series on HMECs [1] was “up to 48 hours”. In addition, the “LTB4 induced adhesion to the endothelial monolayer” value with HMEC monolayers was “Neither PMA, nor Bryostatin-1 reduced LTB4 induced adhesion”. The “LTB4 induced neutrophil migration” value in the series with HMECs [2] (HMECs on transwells, 1 h pretreatment 100 nM or 10 nM (PMA: 100, 10 or 1 nM), 3 h) was “reduced LTB4 induced migration in a dose dependent manner”. In addition, in the series on HMECs [2] (HMECs, 1 h pretreatment at 1 nM), the “LTB4 induced neutrophil migration (PMN TEM)” value was “did not reduce PMN TEM; also recorded: had no effect on LTB4 induced migration”. Also, the “LTB4 induced neutrophil TEM” value in the series with HMECs [2] (HMECs, 1 h pretreatment, higher doses (100 nM)) was “attenuated neutrophil TEM to levels below that of basal migration”. Besides, the “time after pretreatment for which reduction in LTB4 induced migration is maintained” value in the series with HUVECs is recorded as “up to 48 h”. Moreover, the HMEC viability entry in the series with HMEC was “no effect”. Besides, in series [3], the “trans endothelial resistance (TER)” value is listed as “decrease trans endothelial resistance (TER)”. In addition, the “migration induced by a combination of TNF-α pretreatment and LTB4 gradient” value with HMECs [4] is recorded as “reduced migration”. The “TNF-α induced neutrophil TEM (Type II migration)” value in the series with HMECs [4] (HMECs, 24 h TNF-α 10 or 20 ng/ml, 1 hour pretreatment with 100 nM) was “attenuated Type II migration; also recorded: totally attenuated”. In addition, the HUVEC viability result with HUVEC (48 h after a single 1 h treatment with 100 nM) is “slight but significant reduction in viability”; in the series on HUVEC (single 1 h 100 nM treatment, time points 1, 24, 48 h (PMA: except 48 h)), “no effect”. In addition, the “LTB4 induced neutrophil migration after pretreatment, PKC-ε knocked down” value in series [5] was “did not restore LTB4 induced migration”.
Consider hypocrellin A, for which, in the series with endothelial cells, the “increased permeability caused by high glucose and PMA” value is “reduced this increased permeability”.
